Data from patent US20260226493A1, “HERBICIDE RESISTANT PLANTS” (SYNGENTA CROP PROTECTION AG, priority 2023, published 2026).

Columns and labels:
[1] = molecular target: T1, Arabidopsis thaliana BioDA variant enzymes (Arabidopsis thaliana, UniProt B0F481); assay: biochemical
T1 construct: with the predicted N-terminal mitochondrial transit peptide removed; 6xHis-tag (N); thrombin cleavage site (N); made in house; host or cells: E. coli BL21 (DE3) bioA
Experimental: (§1) These plasmids were then expressed in E. coli BL21 (DE3) bioA with 50 μg/mL kanamycin and 25 μg/mL chloramphenicol selection. Overnight cultures grown at 37° C. were used to inoculate 8×500 mL AIM in shake flasks at a ratio of 1:100. Cultures were grown at 37° C., 200 rpm for 3.5 hours and then overnight at 20° C. Cells were harvested by centrifugation for 30 minutes at 10 000 g. Cells were stored at −80° C. until extraction. 30 g of cell pellet from was thawed in 120 mL of IMAC buffer A (20 mM HEPES pH7.5, 25 mM imidazole, 500 mM sodium chloride, 0.15 mM pyridoxal phosphate, 0.5 mM TCEP, 1× complete Protease Inhibitor Tablet (Roche)). The resuspension was passed through a cell disrupter at 18 000 PSI and centrifuged at 50 000 g for 25 minutes at 4° C. The His-tagged BIO3-BIO1 protein was purified from the extract supernatant on an AKTA avant chromatography system (Cytiva) using a HisTrap FF column and eluted in IMAC buffer B ((20 mM HEPES pH7.5, 500 mM imidazole, 500 mM sodium chloride, 0.15 mM pyridoxal phosphate, 0.5 mM TCEP) followed by SEC using a HiLoad 26/60 Superdex200 column in SEC buffer (25 mM HEPES pH7.5, 150 mM sodium chloride, 0.15 mM pyridoxal phosphate, 0.5 mM TCEP). Protein concentration was measured and calculated using the absorbance at 280 nm. Extracts were diluted 1 in 4 and 10 uL was analysed by SDS PAGE.
(§2) To measure BIO3-BIO1 mutant enzyme activity in the presence of herbicide, herbicides were incubated with 20 μL of enzyme mix (100 mM EPPS pH 8.6, 0.1 mM pyridoxal phosphate, 0.1 mg/mL BSA, 50 nM BIO3-BIO1 enzyme) for 10 minutes at 20° C. in a well of a 96-well half-area black plate, followed by the addition of 20 μL of substrate mix (final concentration of 100 mM EPPS pH 8.6, 0.1 mM pyridoxal phosphate, 0.1 mg/mL BSA, 100 μM spermidine, 20 μM KAPA, 100 mM NaCO3) and further incubation for 75 minutes at 20° C. The reaction was terminated by the addition of 50 μL of derivatisation mix (final concentration of 250 mM borate NaOH pH 9.4, 3.6 mM o-phthalaldehyde, 7 mM β-mercaptoethanol, 17% (v/v) ethanol, 3.6% (v/v) methanol). The fluorescent product produced by the reaction of DAPA with o-phthalaldehyde and 7 mM β-mercaptoethanol was measured at 470 nm after excitation at 410 nm.
(§3) For IC50 calculations, appropriate dose responses of compounds L, M, B, K and G were used. Calculated percentage inhibitions were then input into GraphPad Prism 7 and IC50s calculated using the non-linear regression (vs. normalised response) equation.

[2] = molecular target: T2, Arabidopsis thaliana BioDA variant enzymes (Arabidopsis thaliana, UniProt B0F481, C388D); assay: biochemical
T2 construct: with the predicted N-terminal mitochondrial transit peptide removed; 6xHis-tag (N); thrombin cleavage site (N); made in house; host or cells: E. coli BL21 (DE3) bioA
Experimental: as §1, §2, §3

T2 sequence (B0F481 24-833 C388D): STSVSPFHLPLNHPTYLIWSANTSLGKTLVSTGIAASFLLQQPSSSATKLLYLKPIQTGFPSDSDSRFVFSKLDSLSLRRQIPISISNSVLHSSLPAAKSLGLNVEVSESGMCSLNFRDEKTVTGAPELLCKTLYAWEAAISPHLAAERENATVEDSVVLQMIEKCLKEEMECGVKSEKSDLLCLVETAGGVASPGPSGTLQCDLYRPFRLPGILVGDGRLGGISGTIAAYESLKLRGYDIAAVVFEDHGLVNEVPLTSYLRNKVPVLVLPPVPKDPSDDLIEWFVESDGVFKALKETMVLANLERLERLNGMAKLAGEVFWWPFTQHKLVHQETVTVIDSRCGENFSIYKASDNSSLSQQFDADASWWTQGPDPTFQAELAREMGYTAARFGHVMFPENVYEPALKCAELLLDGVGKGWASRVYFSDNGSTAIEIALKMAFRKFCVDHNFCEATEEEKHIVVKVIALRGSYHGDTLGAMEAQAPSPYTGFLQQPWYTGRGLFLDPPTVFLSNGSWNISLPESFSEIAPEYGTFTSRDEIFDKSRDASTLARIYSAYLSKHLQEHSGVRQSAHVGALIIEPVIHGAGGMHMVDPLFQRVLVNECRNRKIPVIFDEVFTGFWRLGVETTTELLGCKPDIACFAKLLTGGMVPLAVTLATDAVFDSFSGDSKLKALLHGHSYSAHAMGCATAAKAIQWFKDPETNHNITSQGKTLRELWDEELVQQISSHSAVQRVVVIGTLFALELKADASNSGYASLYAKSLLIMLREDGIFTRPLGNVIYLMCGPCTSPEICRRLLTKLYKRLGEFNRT

SMILES: O=C(O)CC1CCC(=O)N1Cc1ccc(F)c(F)c1F (stereo not shown) [Compound K, 2-[5-oxo-1-[(2,3,4-trifluorophenyl)methyl]pyrrolidin-2-yl]acetic acid]
- IC50 [1]: 25 µM
- IC50 [2]: 386 µM

SMILES: O=C(O)CC1CCC(=O)N1Cc1cccc(F)c1F (stereo not shown) [Compound G, 2-[1-[(2,3-difluorophenyl)methyl]-5-oxo-pyrrolidin-2-yl]acetic acid]
- IC50 [1]: 89 µM
- IC50 [2]: 361 µM
